Results taken from patent publication US20260132129A1 (Genesis Therapeutics, Inc., priority 2022, published 2026).

Target: T1, PI3Kα H1047R (T47D cells) (Homo sapiens, UniProt P42336, H1047R)
T1 construct: endogenous in cells; host or cells: T47D cells
Assay: PI3Kα cellular assay: pAKT HTRF in T47D cells after EGF stimulation
Assay type: cell-based
Details: for IC50: T47D cells (PI3Kα H1047R), pAKT S473 HTRF
Procedure, shortened: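 pAKT read by HTRF in lysates of EGF-stimulated (20 ng/mL, 10 min) T47D H1047R cells. Before stimulation, serum-starved cells (16 h) received compound for 1 h at 37 °C, dosed from 10,000 nM down to 0.5 nM in 3-fold steps.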

[1] = selectivity of T47D (H1047R) over SKBR3 (WT) pAKT IC50
[2] = selectivity T47D (H1047R) over SKBR3 (WT), pAKT HTRF
[3] = 1 hr compound, 20 ng/ml EGF 10 min

T1 sequence (P42336 whole entry H1047R): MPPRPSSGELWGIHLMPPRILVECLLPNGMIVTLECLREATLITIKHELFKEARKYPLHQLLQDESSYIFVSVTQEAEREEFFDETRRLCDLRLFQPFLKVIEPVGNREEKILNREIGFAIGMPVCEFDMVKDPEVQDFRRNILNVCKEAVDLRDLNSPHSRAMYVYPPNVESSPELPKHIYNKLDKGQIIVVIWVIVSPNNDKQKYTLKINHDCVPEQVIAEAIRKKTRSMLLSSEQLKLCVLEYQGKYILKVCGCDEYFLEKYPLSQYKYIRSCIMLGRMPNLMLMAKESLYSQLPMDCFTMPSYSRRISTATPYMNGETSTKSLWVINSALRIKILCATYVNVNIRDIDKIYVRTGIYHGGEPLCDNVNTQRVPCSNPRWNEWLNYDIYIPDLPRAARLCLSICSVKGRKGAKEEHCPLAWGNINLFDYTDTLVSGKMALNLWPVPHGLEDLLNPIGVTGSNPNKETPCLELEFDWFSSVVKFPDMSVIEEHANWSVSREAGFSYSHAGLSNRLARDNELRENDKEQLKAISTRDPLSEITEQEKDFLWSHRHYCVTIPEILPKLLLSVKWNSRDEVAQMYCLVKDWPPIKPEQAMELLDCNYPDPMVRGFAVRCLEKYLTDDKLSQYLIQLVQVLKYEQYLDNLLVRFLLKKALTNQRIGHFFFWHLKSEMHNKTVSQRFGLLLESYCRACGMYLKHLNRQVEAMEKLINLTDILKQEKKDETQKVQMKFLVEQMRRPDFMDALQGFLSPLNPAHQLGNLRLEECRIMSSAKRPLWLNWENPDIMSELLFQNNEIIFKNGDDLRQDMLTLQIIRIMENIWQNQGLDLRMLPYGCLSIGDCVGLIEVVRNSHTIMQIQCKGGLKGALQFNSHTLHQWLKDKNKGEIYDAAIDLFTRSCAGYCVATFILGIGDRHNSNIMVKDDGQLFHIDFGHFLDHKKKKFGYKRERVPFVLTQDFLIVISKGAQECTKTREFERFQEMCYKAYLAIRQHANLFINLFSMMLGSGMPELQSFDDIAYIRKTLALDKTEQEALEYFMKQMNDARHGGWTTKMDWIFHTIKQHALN
T1 sequence (P27986 whole entry partner): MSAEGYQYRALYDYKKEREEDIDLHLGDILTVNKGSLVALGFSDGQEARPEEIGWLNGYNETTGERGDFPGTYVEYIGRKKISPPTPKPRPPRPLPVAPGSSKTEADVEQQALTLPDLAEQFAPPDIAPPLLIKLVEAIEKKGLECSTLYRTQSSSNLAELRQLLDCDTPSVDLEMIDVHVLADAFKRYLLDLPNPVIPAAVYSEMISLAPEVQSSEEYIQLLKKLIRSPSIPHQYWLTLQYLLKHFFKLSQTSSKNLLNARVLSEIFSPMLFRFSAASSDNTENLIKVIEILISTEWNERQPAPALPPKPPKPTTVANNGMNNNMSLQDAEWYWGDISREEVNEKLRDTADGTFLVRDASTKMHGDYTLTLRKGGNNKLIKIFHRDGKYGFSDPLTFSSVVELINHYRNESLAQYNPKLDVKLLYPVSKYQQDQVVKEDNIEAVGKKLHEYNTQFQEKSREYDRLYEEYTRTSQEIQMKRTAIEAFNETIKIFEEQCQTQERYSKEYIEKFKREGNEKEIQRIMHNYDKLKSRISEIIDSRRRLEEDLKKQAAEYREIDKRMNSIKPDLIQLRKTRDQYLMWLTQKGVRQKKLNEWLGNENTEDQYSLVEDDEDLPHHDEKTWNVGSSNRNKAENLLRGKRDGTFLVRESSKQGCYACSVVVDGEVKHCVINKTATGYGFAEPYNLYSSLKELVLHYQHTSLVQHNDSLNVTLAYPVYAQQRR

| Structure (SMILES) | IC50 (EGF stimulation) [µM] | T47D pAKT S473 HTRF IC50 (H1047R): T47D (H1047R) selectivity over SKBR3 (WT) [1] | T47D pAKT S473 HTRF IC50 (H1047R): T47D (H1047R) selectivity over SKBR3 (WT) [2] | IC50 [3] [µM] |
| --- | --- | --- | --- | --- |
| Cc1cc(C(C)Nc2ccccc2C(=O)O)c2nc(-c3ccc4c(c3)c(=O)[nH]n4C)cc(=O)n2c1 (stereo not shown) [Compound 790] | > 2 | C (C denotes ≤5-fold) | – | – |
| Cc1cc(C(C)Nc2cccc3onc(O)c23)c2nc(-c3cccc(F)c3)c(C)c(=O)n2c1 (stereo not shown) [Compound 1356] | – | – | A (A denotes >20-fold) | – |
| Cc1cc(C(C)Nc2ccccc2C(=O)O)c2nc(C3CCC(C)CC3)cc(=O)n2c1 (stereo not shown) [Compound 339] | – | – | C (C denotes ≤5-fold) | – |
| Cc1cc([C@H](C)Nc2ccccc2C(=O)O)c2nc(-c3ccc4c(c3)c(C)cn4C)cc(=O)n2c1 [Compound 798] | < 0.1 | A (A denotes >20-fold) | – | – |
| Cc1cc([C@@H](C)Nc2ccccc2C(=O)O)c2nc(-c3cccc(F)c3)c(C)c(=O)n2c1 (single isomer, unassigned) [Compound 969] | < 0.1 | A (A denotes >20-fold) | – | – |
| CNC1=NC2C=C(c3cc(=O)n4cc(C)cc(C(C)Nc5ccccc5C(=O)O)c4n3)C=CC2=C1 (stereo not shown) [Compound 577] | – | – | A (A denotes >20-fold) | 0.1 to 0.5 |
| Cc1cc(C(C)Nc2ccccc2-c2ccnnc2)c2nc(N3Cc4ccccc4C3)cc(=O)n2c1 (stereo not shown) [Compound 665, 2-(isoindolin-2-yl)-7-methyl-9-(1-((2-(pyridazin-4-yl)phenyl)amino)ethyl)-4H-pyrido[1,2-a]pyrimidin-4-one] | 0.1 to 0.5 | A (A denotes >20-fold) | – | – |
| Cc1cc([C@@H](C)Nc2ccccc2C(=O)O)c2nc(-c3cnc(C4CCOCC4)nc3)c(C)c(=O)n2c1 [Compound 1296] | 0.1 to 0.5 | – | A (A denotes >20-fold) | – |
| Cc1cc([C@H](C)Nc2ccccc2C(=O)O)c2nc(-c3ccc4c(C)nn(C)c4c3)c(C)c(=O)n2c1 [Compound 928] | > 2 | C (C denotes ≤5-fold) | – | – |
| Cc1cc(C(C)Nc2ccccc2C(=O)O)c2nc(-c3cc(F)cc(C4CC4)c3)c(C)c(=O)n2c1 (stereo not shown) [Compound 1169] | < 0.1 | – | A (A denotes >20-fold) | – |
| Cc1cc([C@@H](C)Nc2ccccc2C(=O)O)c2nc(-c3cc(C)c(F)c(C)c3)cc(=O)n2c1 [Compound 662] | 0.1 to 0.5 | A (A denotes >20-fold) | – | – |
| Cc1cc(C(C)Nc2ccc(C#N)cc2C(=O)O)c2nc(N3CCOCC3)cc(=O)n2c1 (stereo not shown) [Compound 329] | – | – | C (C denotes ≤5-fold) | > 2 |
| Cc1cc([C@H](C)Nc2ccccc2C(=O)O)c2nc(N3CCN(C(=O)CN)CC3)cc(=O)n2c1 [Compound 528] | – | – | C (C denotes ≤5-fold) | > 2 |
| Cc1cc([C@@H](C)Nc2ccccc2C(=O)O)c2nc(-c3cc4c(N)nn(C)c4cc3C)cc(=O)n2c1 [Compound 704] | > 2 | C (C denotes ≤5-fold) | – | – |
| Cc1cc([C@H](C)Nc2ccccc2C(=O)O)c2nc([C@H]3CCCOC3)c(C)c(=O)n2c1 [Compound 1282] | > 2 | – | C (C denotes ≤5-fold) | – |
| Cc1cc([C@@H](C)Nc2ccccc2C(=O)O)c2nc(-c3ccnc(C4CC4)c3)cc(=O)n2c1 [Compound 1155] | > 2 | – | C (C denotes ≤5-fold) | – |
| Cc1cc([C@@H](C)Nc2ccccc2C(=O)O)c2cc(-c3ccncn3)cc(=O)n2c1 [Compound 481] | – | – | C (C denotes ≤5-fold) | > 2 |
| Cc1cc([C@@H](C)Nc2ccccc2C(=O)O)c2nc(-c3ccc(Cl)cc3F)c(C)c(=O)n2c1 (single isomer, unassigned) [Compound 965] | < 0.1 | A (A denotes >20-fold) | – | – |
| Cc1cc(C(C)Nc2ccccc2C(=O)O)c2nc(N3CCN(c4ccncc4)CC3)cc(=O)n2c1 (stereo not shown) [Compound 467] | – | – | C (C denotes ≤5-fold) | > 2 |
| Cc1cc([C@H](C)Nc2ccccc2C(=O)O)c2nc(-c3cnc(C#N)c(Cl)c3)c(C)c(=O)n2c1 [Compound 1084] | > 2 | – | C (C denotes ≤5-fold) | – |
| Cc1cc(C(C)Nc2ccccc2C(=O)O)c2nc(-c3ccc4c(c3)c(N(C)C)nn4C)cc(=O)n2c1 (stereo not shown) [Compound 457] | – | – | A (A denotes >20-fold) | < 0.1 |
| Cc1cc(C(C)Nc2ccccc2C(=O)O)c2nc(Nc3ccc4[nH]c(=O)[nH]c4c3)cc(=O)n2c1 (stereo not shown) [Compound 505] | – | – | C (C denotes ≤5-fold) | > 2 |

| Structure (SMILES) | IC50 (EGF stimulation) [µM] | T47D pAKT S473 HTRF IC50 (H1047R): T47D (H1047R) selectivity over SKBR3 (WT) [1] | T47D pAKT S473 HTRF IC50 (H1047R): T47D (H1047R) selectivity over SKBR3 (WT) [2] | IC50 [3] [µM] |
| --- | --- | --- | --- | --- |
| Cc1cc([C@H](C)Nc2ccccc2C(=O)O)c2nc(-c3ccc4c(c(N)nn4C)c3C)cc(=O)n2c1 [Compound 703] | > 2 | C (C denotes ≤5-fold) | – | – |
| Cc1cc([C@@H](C)Oc2ccc(F)cc2C(=O)O)c2nc(N3CCOCC3)cc(=O)n2c1 [Compound 332] | – | – | C (C denotes ≤5-fold) | > 2 |
| Cc1cc([C@@H](C)Nc2ccccc2C(=O)O)c2cc(-c3ccnnc3)cc(=O)n2c1 [Compound 483] | – | – | B (B denotes 20-fold≥value>5-fold) | 0.5 to 2 |
| Cc1cc([C@@H](C)Nc2ccccc2C(=O)O)c2nc([C@H]3CCCC(CC(F)F)C3)c(C)c(=O)n2c1 (stereo partly shown) [Compound 1329] | – | – | A (A denotes >20-fold) | – |
| Cc1cc(C(C)Nc2ccccc2C(=O)O)c2nc(C3C[C@@H](C)O[C@@H](C)C3)c(C)c(=O)n2c1 (stereo partly shown) [Compound 901] | – | A (A denotes >20-fold) | – | – |
| Cc1cc([C@@H](C)Nc2ccccc2S(C)(=O)=O)c2nc(-c3ccc(C4CCC(C)CC4)cc3)c(C)c(=O)n2c1 (stereo partly shown) [Compound 1354] | – | – | C (C denotes ≤5-fold) | – |
| Cc1cc(C(C)Nc2ccccc2C(=O)O)c2nc(C3CCCOC3)c(C#N)c(=O)n2c1 (stereo not shown) [Compound 1353] | 0.1 to 0.5 | – | A (A denotes >20-fold) | – |
| Cc1cc([C@H](C)Nc2ccccc2C(=O)O)c2nc(-c3ccc(C#N)nc3)c(C)c(=O)n2c1 [Compound 976] | > 2 | C (C denotes ≤5-fold) | – | – |
| Cc1cc([C@@H](C)Nc2ccccc2C(=O)O)c2nc(N3CCC(C)CC3)cc(=O)n2c1 [Compound 359] | – | – | A (A denotes >20-fold) | < 0.1 |
| Cc1cc([C@H](C)Nc2ccccc2C(=O)O)c2nc(-c3cnc(C4CCOCC4)nc3)c(C)c(=O)n2c1 [Compound 1297] | > 2 | – | C (C denotes ≤5-fold) | – |
| Cc1cc(C(C)Nc2ccccc2)c2nc(N3Cc4ccccc4C3)c(C)c(=O)n2c1 (stereo not shown) [Compound 1085] | > 2 | – | C (C denotes ≤5-fold) | – |
| Cc1cc([C@H](C)Nc2ccccc2-c2ccnnc2)c2nc(N3Cc4ccccc4C3)c(C3CC3)c(=O)n2c1 [Compound 875] | < 0.1 | A (A denotes >20-fold) | – | – |
| Cc1cc([C@@H](C)Nc2ccccc2C(=O)O)c2nc(-c3ccncc3)c(C)c(=O)n2c1 [Compound 1004] | > 2 | C (C denotes ≤5-fold) | – | – |
| Cc1cccc(-c2nc3c(C(C)Nc4ccccc4C(=O)O)cc(C)cn3c(=O)c2C(C)C)c1 (stereo not shown) [Compound 1245] | – | – | A (A denotes >20-fold) | – |
| COc1cc(-c2nc3c([C@@H](C)Nc4ccccc4C(=O)O)cc(C)cn3c(=O)c2C)cn2ncc(C#N)c12 [Compound 1291] | 0.1 to 0.5 | – | A (A denotes >20-fold) | – |
| Cc1cc([C@H](C)Nc2cc(F)cc(F)c2)c2nc(N3CCOCC3)cc(=O)n2c1 [Compound 264] | – | – | C (C denotes ≤5-fold) | > 2 |
| Cc1cc([C@@H](C)Nc2ccccc2C(=O)O)c2nc(-c3cnc4c(c3)c(C)nn4C)c(C)c(=O)n2c1 [Compound 762] | < 0.1 | A (A denotes >20-fold) | – | – |
| CC1=CN2C(=O)CC(N3CCOCC3)N=C2C(C(C)Nc2ccccc2)=C1 (stereo not shown) [Compound 47] | – | – | C (C denotes ≤5-fold) | > 2 |
| Cc1cc(C(C)Nc2ccccc2S(N)(=O)=O)c2nc(-c3cc(C)c4oc(=O)[nH]c4c3)cc(=O)n2c1 (stereo not shown) [Compound 571] | – | – | C (C denotes ≤5-fold) | > 2 |
| Cc1cc([C@H](C)Nc2ccccc2C(=O)O)c2nc(N3CCC(C)(C)CC3)cc(=O)n2c1 [Compound 362] | – | – | C (C denotes ≤5-fold) | > 2 |
| Cc1cc([C@H](C)Nc2ccccc2C(=O)O)c2nc(N3C[C@@H](C)C(F)(F)[C@@H](C)C3)cc(=O)n2c1 [Compound 712, 2-(((S)-1-(2-((3S,5R)-4,4-difluoro-3,5-dimethylpiperidin-1-yl)-7-methyl-4-oxo-4H-pyrido[1,2-a]pyrimidin-9-yl)ethyl)amino)benzoic acid] | > 2 | C (C denotes ≤5-fold) | – | – |
| Cc1cc(C(C)Nc2ccccc2C(=O)O)c2nc(-c3ccnnc3)cc(=O)n2c1 (stereo not shown) [Compound 460] | – | – | B (B denotes 20-fold≥value>5-fold) | 0.5 to 2 |
